Experimental data as given in US7964613B2 (Asahi Kasei Pharma Corporation, priority 2007, dated 2011).

How the values were obtained:
[1] = tested on: hippocampus nerve cells; experiment: Effect of neurite outgrowth; type: cell-based, Wistar rat; details: 22 hours
Experimental: A Lab-Tek culture slide (4-well) was coated with poly-L-lysine (Sigma). A pregnant Wistar rat was used, and anesthetized with ether on day 18 of gestation. Then, a rat fetus was taken out from the rat, and the hippocampus was extracted from the brain of the fetus, put into a phosphate buffered physiological saline containing 0.1% trypsin, and incubated at 37° C. for 10 minutes. The hippocampus precipitated by centrifugation was ground in a medium containing 10% heat-inactivated fetal bovine serum by using a pipet to obtain hippocampus nerve cells. The cells were finally suspended in a medium containing B27 Supplement (Gibco), and plated on the preliminarily coated Lab-Tek culture slide at a density of 50,000 cells/well. After adhesion of the cells (about 2 hours), a drug was added at a desired concentration, and the slide was further incubated at 37° C. for 22 hours under 5% CO2. […]
After the incubation, the cells were fixed with 4% paraformaldehyde, and immunostained by using rabbit anti-beta-III-tubulin antibodies (Covance). Images of the nerve cells were captured into a computer by using a digital camera (DP-70, Olympus) installed in a fluorescence microscope (Olympus). Images of 20 to 30 of arbitrary sites on the slide were captured, and lengths of the axial fivers of 200 to 300 nerve cells were measured by using NIH imaging software for each drug. […]

[2] = tested on: intraocular pressure; experiment: Rabbit intraocular pressure reduction enhancing action, Test Example 7-2 (combination use with timolol maleate); type: in vivo, Japanese white rabbit; details: Table 6; 19-1 compound 0.01 weight % aqueous solution 50 μL, Timoptol 50 μL; difference relative to control group at 1, 2, 4 hours; 12 rabbits
Experimental: As a test compound, the 19-1 compound was dissolved in physiological saline, and the solution was neutralized by addition of sodium hydroxide (pH 7.0 to 8.0) to prepare a 0.01 weight % aqueous solution (19-1 compound aqueous solution). As a drug for combination use, timolol maleate (trade name: Timoptol, Santen Pharmaceutical) was used as an adrenergic receptor β blocker, as the marketed formulation as it was.
A Japanese white rabbit having a body weight of about 2 kg was placed in a positioner and naturalized for one week before the experiment. An opthalmologic local anesthesant (Benoxil) was administered to both eyes, and then intraocular pressure before instillation was measured by using a tonometer (Classic 30, Solan). […] The intraocular pressure thereafter was measured for each group 1, 2 and 4 hours after the second administration of the test compound, and the difference of the measured values at each measurement time for the each group and the control group was considered an intraocular pressure reduction value of each group. The largest difference of the intraocular pressure values relative to the control group among those of the measured values of the measurement times was considered the maximum intraocular pressure reduction value (max ? IOP) of each drug group.

[3] = tested on: intraocular pressure; experiment: Intraocular pressure reduction enhancing action in monkey; type: in vivo; details: cynomolgus monkey, 0.01 weight % aqueous solution, 30 μL
Experimental: Moreover, as for the test compound used for combination use, similar effect can be obtained also with the compounds of the present invention represented with the example numbers mentioned in Test Example 3. The test is performed by using cynomolgus monkeys sufficiently naturalized for the operation of fixation on a monkey chair and ophathalmotonometry.
As the test compound, the 19-1 compound is dissolved in physiological saline, and the solution is neutralized by addition of sodium hydroxide (pH 7.0 to 8.0) to prepare a 0.01 weight % aqueous solution (19-1 compound aqueous solution). As a drug for combination use, latanoprost (trade name: Xalatan, Pfizer) is used as the marketed formulation per se. The test aqueous solution or the drug for combination use is instilled to the left eye, and the right eye is not treated (control eye). […] After initial intraocular pressure values of the monkeys are measured for each group, 30 μL of physiological saline is instilled to the control group, single drug group 1, and single drug group 2, and latanoprost is instilled in the same volume to the combination use group. […] Then, the intraocular pressure is measured over time for each group.

SMILES | neurites extended compared with non-treated nerve cells ([1]; concentration of 1 μM) [%] | neurites extended compared with non-treated nerve cells ([1]; concentration of 10 μM) [%] | Max IOP (maximum intraocular pressure reduction value) [2] [mmHg] | intraocular pressure reducing action in single drug group 1 [3]
CN[C@H]1CCN(S(=O)(=O)c2cccc3c(O)ncc(Cl)c23)C1 [Example 36-1, (S)-1-(1-Hydroxy-4-chloro-5-isoquinolinesulfonyl)-3-(methylamino)pyrrolidine] | 28 | 43 |  | 
N[C@H]1CCN(S(=O)(=O)c2cccc3cncc(Cl)c23)C1 [Example 19-1, (S)-3-Amino-1-(4-chloro-5-isoquinolinesulfonyl)pyrrolidine] |  |  | 4.1 | exceeding that of the control group
